Source: patent publication US11199497B2, “Fluorescent compounds as sensing agents” (OHIO NORTHERN UNIVERSITY, priority 2016, dated 2021)

Key:
[1] = Shift in emission spectrum on exposure to varying amounts of FeCl3; settings: for red-shift in peak emission wavelength / Fe^3+ ions at which shift in emission spectrum is saturated: FeCl3; for total red-shift in peak emission wavelength: FeCl3, at saturation
Method: Two substituted chromones (Compound 11 and Compound 20) were dissolved in methanol and exposed to varying amounts of FeCl3 (i.e., Fe^3+). FIG. 4 illustrates the shift in emission spectrum of Compound 11 with increasing amounts of Fe^3+ ions. With about 10 equivalents of Fe^3+ ions, the shift in emission spectrum is saturated, with a total of about a 30 nm red-shift in peak emission wavelength. FIG. 5 illustrates the shift in emission spectrum of Compound 20 with increasing amounts of Fe^3+ ions. With about 10 equivalents of Fe^3+ ions, the shift in emission spectrum is saturated, with a total of about a 50 nm red-shift in peak emission wavelength.
Compound 11 was dissolved in various solvents and then exposed to varying amounts of FeCl3 (i.e., Fe^3+). […]

[2] = Emission spectrum on exposure to varying amounts of (NH4)2Fe(SO4)2.6H2O
Method: Compound 11 was dissolved in methanol and then exposed to varying amounts of FeCl3 (i.e., Fe^3+) or (NH4)2Fe(SO4)2.6H2O (i.e., Fe^2+). […] Therefore, Compound 11 may be used to detect Fe^3+ while in the presence of Fe^2+.

[3] = Emission spectrum on exposure to varying amounts of Pb(NO3)2 in different solvents
Method: Compound 20 was dissolved in methanol and then exposed to varying amounts of Pb(NO3)2 (i.e., Pb^2+). […] Therefore, a kit, method, system, or the like may utilize a specific solvent system for detection of lead or other ions. Alternatively, and especially where the metal ion concentration is unknown, a kit, method, system, or the like may utilize a series of solvent systems in parallel to determine a concentration of metal ions.
A 5 μM sample of Compound 25 in 3:1 tetrahydrofuran:methanol or 2:1 tetrahydrofuran:methanol was prepared and exposed to varying amounts of Pb(NO3)2 (i.e., Pb^2+) dissolved in deionized water.

[4] = Visual detection limit of Pb(NO3)2 (color change blue to green); settings: 5 μM compound in 3:1 tetrahydrofuran:methanol, Pb(NO3)2 in deionized water
Method: The detection limit Pb(NO3)2 (i.e., Pb^2+) for Compound 25 in 3:1 tetrahydrofuran:methanol was tested by exposing samples of 5 μM Compound 25 to ever decreasing concentrations of Pb(NO3)2 dissolved in deionized water.
A 40 mM solution of Pb(NO3)2 (i.e., Pb^2+) was prepared in tap water and then diluted with 3:1 tetrahydrofuran:methanol to a lead concentration of 133 μM. The resultant sample was added to solutions of 5 μM sample of Compound 25 in 3:1 tetrahydrofuran:methanol. […] This example illustrates that the lead detection can be performed using tap water, which includes a variety of other ions.

[5] = Ion selectivity, visual inspection when excited at 365 nm; settings: 3:1 tetrahydrofuran:methanol
Method: Compound 25 was dissolved in 3:1 tetrahydrofuran:methanol and then exposed to varying amounts of Zn/SO4 (i.e., Zn^2+), (NH4)2Fe(SO4)2.6H2O (i.e., Fe^2+), Fe2O3 (i.e., Fe^3+), CuSO4 (i.e., Cu^2+), or Pb(NO3)2 (i.e., Pb^2+) each in deionized water. Upon visual inspection when excited at 365 nm, the sample exposed to Pb^2+turned green while all other samples remained blue.

[6] = Extraction of lead from water with octanol and triethylamine; settings: 3 mM Pb(NO3)2 in deionized water, 1 equivalent triethylamine
Method: A 3 mM Pb(NO3)2 sample was prepared in deionized water and Compound 25 was added to give a green fluorescence. The lead was then extracted from the water using either 1-octanol or 2-octanol each with 1 equivalent (relative to Compound 25) of triethylamine, which turned the octanol portion green. After washing thrice with 1-octanol, 99% of the Pb^2+had been extracted from the water. After washing twice with 2-octanol, 83% of the Pb^2+had been extracted from the water.

[7] = Detection of lead in methanol extract of soil sample; settings: methanol filtrate diluted in 3:1 tetrahydrofuran:methanol
Method: A lead-free soil sample was collected, placed into a Buchner funnel, and soaked with 1 mL of 0.15 M Pb(NO3)2 in water to introduce lead to the soil. As a control sample, the same was performed with the lead-free soil without exposure to Pb^2+. After soaking, the soil samples were washed with 50 mL of methanol. A sample from each filtrate was diluted in 3:1 tetrahydrofuran:methanol and exposed to Compound 25. […] This example illustrates that the substituted chromones described herein may be useful in detecting ions from soil extracts.

COC(=O)C(C)(C)C1Oc2ccc(OC)cc2C(=O)/C1=C\O (centres unmarked) [Compound 11, (Z)-methyl-2-(3-(hydroxymethylene)-6-methoxy-4-oxochroman-2-yl)-2-methylpropanoate]
red-shift in peak emission wavelength ([1]; 1:1 methanol:water): still exhibits a red-shift in peak emission wavelength
intensity change for the peak emission wavelength with increasing metal ion concentration ([1]; methanol (FIG. 4)): intensity decrease
Fe^3+ ions at which shift in emission spectrum is saturated ([1]; methanol): about 10 equivalents
shift of peak emission wavelength ([1]; methanol, FeCl3 (FIG. 4)): significant red-shift
total red-shift in peak emission wavelength ([1]; methanol): ~30 nm
red-shift in peak emission wavelength ([1]; polar aprotic solvents such as tetrahydrofuran, acetonitrile, acetone): did not exhibit an appreciable red-shift
red-shift in peak emission wavelength ([1]; polar protic solvents like water, methanol and mixtures thereof): exhibited an appreciable red-shift
intensity change for the peak emission wavelength with increasing metal ion concentration ([2]; methanol (FIG. 6)): intensity decrease
shift of peak emission wavelength ([2]; methanol, (NH4)2Fe(SO4)2.6H2O (FIG. 6)): does not exhibit appreciable shift

CCc1ccc2c(c1)C(=O)/C(=C\NS(=O)(=O)c1ccc(C)cc1)C(C(C)(C)C(=O)OC)O2 (centres unmarked) [Compound 20, (Z)-methyl 2-(6-ethyl-3-((4-methylphenylsulfonamido)meth-ylene)-4-oxochroman-2-yl)-2-methylpropanoate]
red-shift in peak emission wavelength ([1]; 1:1 methanol:water): does not
Fe^3+ ions at which shift in emission spectrum is saturated ([1]; methanol): about 10 equivalents
total red-shift in peak emission wavelength ([1]; methanol): ~50 nm
Pb^2+ at max shift in peak emission wavelength ([3]; 1:1 tetrahydrofuran:methanol): about 5 equivalents
Pb^2+ at max shift in peak emission wavelength ([3]; 3:1 tetrahydrofuran:methanol): about 3 equivalents
shift in peak emission wavelength ([3]; THF alone): no appreciable shift
Pb^2+ at which shift in peak emission wavelength maxes out ([3]; methanol): 10 equivalents
change of peak emission wavelength in the presence of Pb^2+ ([3]; methanol, 1:1 and 3:1 tetrahydrofuran:methanol, tetrahydrofuran (FIGS. 7-10), degree depends on solvent): red-shift and intensity decrease
shift in peak emission wavelength at 1 equivalent Pb^2+ ([3]; mixed tetrahydrofuran/methanol): does have an appreciable shift

COC(=O)C(C)(C)C1Oc2ccc(OC)cc2C(=O)/C1=C\NS(=O)(=O)c1ccc(OC)cc1 (centres unmarked) [Compound 25, (Z)methyl-2-(6-methoxy-3-(((4-methoxyphenyl)sulfonamido)methylene)-4-oxochroman-2-yl)-2-methylpropanoate]
visual change of fluorescence in the presence of Pb^2+ ([3]; 5 μM compound, 3:1 or 2:1 tetrahydrofuran:methanol): from blue to green
change of peak emission wavelength in the presence of Pb^2+ ([3]; 5 μM compound, 3:1 or 2:1 tetrahydrofuran:methanol, excitation 370 nm (FIGS. 11-12)): red-shift and intensity decrease
speed of color change observed [4]: almost instantaneous
fluorescence color of sample ([5]; (NH4)2Fe(SO4)2.6H2O in deionized water): remained blue
fluorescence color of sample ([5]; CuSO4 in deionized water): remained blue
fluorescence color of sample ([5]; Fe2O3 in deionized water): remained blue
fluorescence color of sample ([5]; Pb(NO3)2 in deionized water): turned green
fluorescence color of sample ([5]; Zn/SO4 in deionized water): remained blue
Pb^2+ extracted from the water ([6]; washing thrice with 1-octanol): 99%
Pb^2+ extracted from the water ([6]; washing twice with 2-octanol): 83%
color change with extract from soil sample exposed to Pb^2+ [7]: color change from blue to green
